Source: the supplement of paper PMC4862054
Several values for one entry are separate records, joined by “and”; a condition that tells them apart may be missing. Equal values may be shown once.

Key:
Conditions in all cases: incubation time: 72 h
HDQ-P1 [1] = test: drug sensitivity score (DSS), CellTiter-Blue viability (DSS (AUC-based score)); higher = stronger viability inhibition; extreme values may be limits of the assay
Method in brief: (§1)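 Drug sensitivity scores correspond to the area under the fitted dose-response curve. Breast cancer cell lines were incubated 72 h with compound at 5 or 9 concentrations in 384-well plates. Viability, read as CellTiter-Blue fluorescence at 560/590 nm, was normalised per plate to 0.1 % DMSO and a positive kill control.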

BT-549 = test: as above
Method in brief: as §1

HCC1599 [2] = test: as above
Method in brief: as §1

Hs578T [3] = test: as above
Method in brief: as §1

MDA-MB-231 [4] = test: as above
Method in brief: as §1

BT-474 = test: as above
Method in brief: as §1

MDA-MB-436 [5] = test: as above
Method in brief: as §1

CAL-85-1 [6] = test: as above
Method in brief: as §1

DU-4475 = test: as above
Method in brief: as §1

CAL-51 [7] = test: as above
Method in brief: as §1

SK-BR-3 [8] = test: as above
Method in brief: as §1

MDA-MB-468 [9] = test: as above
Method in brief: as §1

MDA-MB-453 = test: as above
Method in brief: as §1

CAL-148 [10] = test: as above
Method in brief: as §1

HCC1143 = test: as above
Method in brief: as §1

MFM-223 = test: as above
Method in brief: as §1

HDQ-P1 [11] = test: normalised viability (% of control), CellTiter-Blue; higher = more viable cells (about 100 = DMSO control)
Procedure: (§2)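 DSRT, CellTiter-Blue viability, 72 h incubation. Signal is normalised to DMSO and benzethonium chloride controls. Value is the normalised response at dose 3.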

CAL-120 = test: as above
Procedure: as §2

HCC1599 [12] = test: as above
Procedure: as §2

Hs578T [13] = test: as above
Procedure: as §2

MDA-MB-231 [14] = test: as above
Procedure: as §2

MDA-MB-436 [15] = test: as above
Procedure: as §2

HCC1937 = test: as above
Procedure: as §2

CAL-85-1 [16] = test: as above
Procedure: as §2

CAL-51 [17] = test: as above
Procedure: as §2

SK-BR-3 [18] = test: as above
Procedure: as §2

MDA-MB-468 [19] = test: as above
Procedure: as §2

CAL-148 [20] = test: as above
Procedure: as §2

| Compound | drug sensitivity score (HDQ-P1 [1]) | drug sensitivity score (BT-549) | drug sensitivity score (HCC1599 [2]) | drug sensitivity score (Hs578T [3]) | drug sensitivity score (MDA-MB-231 [4]) | drug sensitivity score (BT-474) | drug sensitivity score (MDA-MB-436 [5]) | drug sensitivity score (CAL-85-1 [6]) | drug sensitivity score (DU-4475) | drug sensitivity score (CAL-51 [7]) | drug sensitivity score (SK-BR-3 [8]) | drug sensitivity score (MDA-MB-468 [9]) | drug sensitivity score (MDA-MB-453) | drug sensitivity score (CAL-148 [10]) | drug sensitivity score (HCC1143) | drug sensitivity score (MFM-223) | normalised viability (HDQ-P1 [11]; 10 nM) | normalised viability (CAL-120; 100 nM) | normalised viability (HCC1599 [12]; 100 nM) | normalised viability (Hs578T [13]; 100 nM) | normalised viability (MDA-MB-231 [14]; 100 nM) | normalised viability (MDA-MB-436 [15]; 100 nM) | normalised viability (HCC1937; 100 nM) | normalised viability (CAL-85-1 [16]; 10 nM) | normalised viability (CAL-51 [17]; 10 nM) | normalised viability (SK-BR-3 [18]; 100 nM) | normalised viability (MDA-MB-468 [19]; 100 nM) | normalised viability (CAL-148 [20]; 10 nM) | normalised viability (HDQ-P1 [11]; 1 nM) [%] | normalised viability (CAL-120; 10 nM) [%] | normalised viability (HCC1599 [12]; 10 nM) [%] | normalised viability (Hs578T [13]; 10 nM) [%] | normalised viability (MDA-MB-231 [14]; 10 nM) [%] | normalised viability (MDA-MB-436 [15]; 10 nM) [%] | normalised viability (HCC1937; 10 nM) [%] | normalised viability (CAL-85-1 [16]; 1 nM) [%] | normalised viability (CAL-51 [17]; 1 nM) [%] | normalised viability (SK-BR-3 [18]; 10 nM) [%] | normalised viability (MDA-MB-468 [19]; 10 nM) [%] | normalised viability (CAL-148 [20]; 1 nM) [%] |
| --- | --- | --- | --- | --- | --- | --- | --- | --- | --- | --- | --- | --- | --- | --- | --- | --- | --- | --- | --- | --- | --- | --- | --- | --- | --- | --- | --- | --- | --- | --- | --- | --- | --- | --- | --- | --- | --- | --- | --- | --- |
| CO[C@@H](C(=O)N1Cc2[nH]nc(NC(=O)c3ccc(N4CCN(C)CC4)cc3)c2C1)c1ccccc1 [Danusertib] | 14.3 | 9.37 | 6.9 | 11.3 | 11 | 0 | 4.87 | 10.7 | 14.2 | 13.4 | 0 | 15.5 | 18.4 | 13.2 | 8.76 | 0 | 104% | 64.8% | 77.2% | 67.1% | 79% | 95.1% | 99.9% | 93.6% | 105% | 62.4% | 59.4% | 79.9% | – | – | – | – | – | – | – | – | – | – | – | – |
| O=S(=O)(c1cccc2cnccc12)N1CCCNCC1 [Fasudil] | 0 | 0 | 0 | 0 | 0 | 0 | 0 | 0 | 0 | 0 | 0 | 0 | 0.912 | 0 | 0 | 1.41 | 103% | 89.4% | 100% | 97.5% | 96% | 100% | 91.7% | 97.7% | 112% | 86.2% | 106% | 93.1% | – | – | – | – | – | – | – | – | – | – | – | – |
| CS(=O)(=O)N1CCN(Cc2cc3nc(-c4cccc5[nH]ncc45)nc(N4CCOCC4)c3s2)CC1 [GDC-0941] | 18.3 | 9.12 | 11.7 | 8.67 | 8.4 | 11.8 | 7.33 | 9.93 | 2.84 | 13.9 | 19.4 | 8.93 | 18.5 | 11.3 | 9.14 | 12.7 | 101% | 75.5% | 69.2% | 89.1% | 83.2% | 91.6% | 99.1% | 90.7% | 109% | 58.7% | 84.2% | 85.6% | – | – | – | – | – | – | – | – | – | – | – | – |
| Cc1c(CN2CCN(C(=O)[C@H](C)O)CC2)sc2c(N3CCOCC3)nc(-c3cnc(N)nc3)nc12 [GDC-0980] | 19.2 | 14.7 | 15.1 | 15.4 | 18.5 | 15.6 | 10.4 | 14.8 | 12.6 | 18.9 | 22.4 | 12.3 | 22.8 | 17.2 | 15.9 | 19.2 | 94% | 71.7% | 67.8% | 82.2% | 59.2% | 85.6% | 76.7% | 100% | 101% | 45.3% | 85.3% | 96.2% | – | – | – | – | – | – | – | – | – | – | – | – |
| Nc1cccc2c1CN(C1CCC(=O)NC1=O)C2=O (stereo not drawn) [Lenalidomide] | 0 | 0 | 0 | 0 | 0 | 0 | 0 | 0 | 0 | 0 | 0 | 0 | 0 | 0 | 0 | 0 | 101% and 93.8% | 71.4% and 84.9% | 117% and 96.9% | 85.7% and 86.3% | 88.9% and 87.4% | 80% and 93.4% | 92.2% and 102% | 88.2% and 90.5% | 106% and 104% | 73.6% and 88.2% | 100% and 94.2% | 88% and 92.2% | – | – | – | – | – | – | – | – | – | – | – | – |
| C[C@]12O[C@H](C[C@]1(O)CO)n1c3ccccc3c3c4c(c5c6ccccc6n2c5c31)CNC4=O [Lestaurtinib] | 0 | 1.24 | 2.58 | 0 | 0 | 0 | 3.43 | 3.82 | 8.26 | 2.4 | 1.47 | 0 | 6.19 | 0 | 3.46 | 5.87 | – | – | – | – | – | – | – | – | – | – | – | – | 113 | 103 | 102 | 83 | 110 | 103 | 79.5 | 99.7 | 115 | 91.3 | 92.9 | 101 |
